From patent publication US5750540A, “1,4-di-substituted piperidine derivatives” (Banyu Pharmaceutical Co., Ltd., priority 1995, dated 1998) come the findings set out here.

One test has as its target T1, muscarinic M1 receptors (Rattus norvegicus, UniProt P08482).
T1 construct: a mixture of a membrane specimen from the cerebral cortex; from tissue; host or cells: rat cerebral cortex membranes (SD rat)
T1 sequence (P08482 1-460): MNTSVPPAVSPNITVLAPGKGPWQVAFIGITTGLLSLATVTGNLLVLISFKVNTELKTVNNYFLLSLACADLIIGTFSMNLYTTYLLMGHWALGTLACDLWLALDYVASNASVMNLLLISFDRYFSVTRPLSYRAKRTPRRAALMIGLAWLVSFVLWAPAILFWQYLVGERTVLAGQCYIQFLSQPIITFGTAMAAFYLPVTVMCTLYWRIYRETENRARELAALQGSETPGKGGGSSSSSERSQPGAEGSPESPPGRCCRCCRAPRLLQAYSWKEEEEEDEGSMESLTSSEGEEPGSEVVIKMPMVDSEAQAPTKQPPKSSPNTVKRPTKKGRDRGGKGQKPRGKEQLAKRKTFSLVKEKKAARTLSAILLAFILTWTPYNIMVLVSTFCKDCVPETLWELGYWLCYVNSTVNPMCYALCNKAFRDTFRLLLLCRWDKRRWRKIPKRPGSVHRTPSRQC
The test is described as follows: Inhibition of binding to muscarinic M1 receptors ([3H]-telenzepine, cerebral cortex membrane). As for the experimental part:
In these tests, their inhibitory and antagonistic effects were expressed in terms of the dissociation constant (Ki) of each test compound which was calculated from its concentration (IC50 ) causing a 50% inhibition of the binding of a labeled ligand to muscarinic receptors. As the labeled ligand, [^3 H]-telenzepine was used for the muscarinic M1 receptors and [^3 H]-N-methylscopolamine for the muscarinic M2 and M3 receptors.
A male SD strain rat (purchased from Nippon Charles River Co., Ltd.), weighing about 250-350 g, was sacrificed, and the cerebral cortex, heart and lacrimal glands were excised. Using a Polytron (setting 5), each organ was homogenized in 5 volumes of an ice-cold buffer solution (pH 7.4) containing 50 mM tris-HCl, 5 mM magnesium chloride, 1 mM trisodium ethylenediaminetetraacetate and 20% sucrose. The resulting homogenate was centrifuged at 3,000×g at 4° C. for 15 minutes, and the supernatant was filtered through gauze and ultracentrifuged at 100,000×g at 4° C. for 45 minutes. The resulting precipitate was suspended in an ice-cold buffer solution (pH 7.4) containing 50 mM tris-HCl and 5 mM magnesium chloride (hereinafter referred briefly to as "tris buffer") and ultracentrifuged at 100,000×g at 4° C. for 45 minutes. The resulting precipitate was suspended in tris buffer so as to give a concentration of 50 mg/ml and stored at -80° C. till use. The membrane specimens so prepared were thawed prior to use and submitted to tests for the inhibition of binding to muscarinic receptors.
2) Tests for the inhibition of binding to the muscarinic M1 receptors
These tests were performed according to a modification of the method of Hargreaves et al. [Br. J. Pharmacol., Vol. 107, pp. 494-501 (1992)]. Specifically, a mixture of a membrane specimen from the cerebral cortex, 1 nM [^3 H]-telenzepine (85 Ci/mmol; manufactured by New England Nuclear) and a test compound in 0.5 ml of tris buffer was incubated at room temperature (about 20°-25° C.) for 120 minutes. After the addition of 0.5 ml of ice-cold tris buffer, the mixture was filtered by suction through a glass filter (Packard Unifilter Plate GF/C). Then, the filter was washed four times with 1 ml portions of ice-cold tris buffer and dried at 50° C. for an hour. After the addition of a scintillator (Packard Microscinti 0), the radioactivity of [^3 H]-telenzepine adsorbed to the filter was measured with a microplate scintillation counter (Packard Topcount). The nonspecific binding of [^3 H]-telenzepine to receptors was determined by the addition of […] pirenzepine. According to the method of Cheng and Prusoff [Biochem. Pharmacol., Vol. 22, pp. 3099-3108 (1973)], the affinity of the test compound (i.e., a compound in accordance with the present invention) for the muscarinic M1 receptors was determined in terms of its dissociation constant (Ki) calculated from the concentration (IC50) of the test compound which was required to cause a 50% inhibition of the binding of [^3 H]-telenzepine used as the labeled ligand.

The next test addresses muscarinic M3 receptor (Rattus norvegicus, UniProt P08483). The test is described as follows: in vivo. More on the design: from tissue; host or cells: living rat, airways. The conditions noted are these: iv, read-out: Mydriasis ED50. On the procedure:
Tests for antagonism against muscarinic M3 receptor (in vivo)
3) Tests for mydriasis in rats
Five- to seven-weeks-old male rats of the Sprague-Dawley strain were anesthetized with pentobarbital (65 mg/kg, i.p.), and a cannula was inserted into the right jugular vein for purposes of drug administration. By using a graduated scale (pulilometer), pupillary responses to drugs were measured to the nearest 0.1 mm at the point of the greatest diameter. […] Responses were expressed as percentages of the maximal increase in pupil diameter induced by administration of atropine (30 μg/kg, i.v.). The ED50 value was calculated from the dose-response curve of the test compound using probit analysis and defined as the drug dose that induced 50% of the maximal response.

A further test has as its target T2, muscarinic M2 receptors (Rattus norvegicus, UniProt P10980).
T2 construct: a membrane specimen from the heart was used as the membrane specimen; from tissue; host or cells: rat heart membranes (SD rat)
T2 sequence (P10980 1-466): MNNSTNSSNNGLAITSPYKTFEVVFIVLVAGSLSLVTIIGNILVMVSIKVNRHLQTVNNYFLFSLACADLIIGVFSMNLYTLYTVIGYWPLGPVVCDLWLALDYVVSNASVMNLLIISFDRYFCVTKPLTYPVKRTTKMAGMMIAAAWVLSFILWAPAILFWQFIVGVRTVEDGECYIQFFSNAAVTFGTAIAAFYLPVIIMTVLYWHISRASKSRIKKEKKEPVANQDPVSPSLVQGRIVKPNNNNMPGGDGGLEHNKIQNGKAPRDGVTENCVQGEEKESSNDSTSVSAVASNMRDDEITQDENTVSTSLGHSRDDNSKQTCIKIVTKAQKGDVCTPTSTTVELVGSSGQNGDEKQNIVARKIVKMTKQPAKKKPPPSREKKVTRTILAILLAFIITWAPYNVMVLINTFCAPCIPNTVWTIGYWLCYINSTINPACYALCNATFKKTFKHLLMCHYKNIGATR
The test can be described thus: Bradycardia in rats (acetylcholine-induced). It counts as in vivo. The conditions noted are these: iv, 5 min, i.v., 5 minutes after administration, 50% inhibition of acetylcholine-induced bradycardia, read-out: Bradycardia ID50. As for the experimental part: 6) Tests for bradycardia in rats
Eight- to eleven-weeks-old male rats of the Sprague-Dawley strain, weighing 300-400 g, were anesthetized with urethane (750 mg/kg, i.p.) and α-chloralose (37.5 mg/kg, i.p.). A bronchus was intubated, and the right jugular vein was cannulated for drug administration. […] To evoke bradycardia, acetylcholine (50 μg/kg, i.v.) was administered to the animals. Mean values for the acetylcholine-induced decrease in heart rate as measured five minutes before (control) and five minutes after test compound administration were calculated and the results were expressed as percentages relative to the control response. The ID50 value was calculated from the dose-response curve of the test compound using probit analysis and defined as the drug dose that inhibited the acetylcholine-induced bradycardia in the control group by 50%.

muscarinic M3 receptor, sequence (P08483 whole entry): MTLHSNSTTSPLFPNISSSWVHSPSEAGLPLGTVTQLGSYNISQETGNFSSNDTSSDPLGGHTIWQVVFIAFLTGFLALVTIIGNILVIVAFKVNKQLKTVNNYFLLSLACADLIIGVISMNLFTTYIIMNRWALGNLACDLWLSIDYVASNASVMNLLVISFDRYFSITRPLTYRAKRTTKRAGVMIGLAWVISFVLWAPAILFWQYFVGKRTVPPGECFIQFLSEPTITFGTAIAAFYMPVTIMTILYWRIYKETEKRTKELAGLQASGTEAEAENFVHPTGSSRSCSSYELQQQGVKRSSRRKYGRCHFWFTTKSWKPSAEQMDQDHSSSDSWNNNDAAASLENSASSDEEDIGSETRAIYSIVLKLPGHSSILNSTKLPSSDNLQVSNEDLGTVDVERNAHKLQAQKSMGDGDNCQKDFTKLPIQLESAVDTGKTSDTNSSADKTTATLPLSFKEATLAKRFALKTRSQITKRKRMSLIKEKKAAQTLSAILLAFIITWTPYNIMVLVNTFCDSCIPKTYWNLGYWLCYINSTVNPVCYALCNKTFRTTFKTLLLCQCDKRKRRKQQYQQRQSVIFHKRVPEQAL

As usually defined, the Ki is the equilibrium dissociation constant of an inhibitor or competing ligand from its target. A higher Ki goes with a looser hold on the target. `CC(C)=CCCN1CCC(NC(=O)C(O)(c2ccccc2)C2CCC2)CC1` (stereo not drawn) [Example 1, N-[1-(4-methyl-3-pentenyl)-piperidin-4-yl]-2-cyclobutyl-2-hydroxy-2-phenylacetamide]: the Ki on muscarinic M1 receptors is 45 nM. Moreover, the ED50 at muscarinic M3 receptor was 1.4 mg/kg; at muscarinic M2 receptors, over 3 mg/kg.
